From paper PMC4113817, “New Hippolide Derivatives with Protein Tyrosine Phosphatase 1B Inhibitory Activity from the Marine Sponge Hippospongia lachne” (Marine Drugs, 2014)

What follows are compounds tested against T1, recombinant PTP1B (catalytic domain) (Homo sapiens, UniProt P18031) (assay: PTP1B inhibitory assay (pNPP hydrolysis)). Conditions: in vitro; pNPP substrate, 30 °C, pH 6.5.
T1 construct: The enzymatic activities of the PTP1B catalytic domain were determined at 30 °C by monitoring the hydrolysis of pNPP
T1 sequence (P18031 3-277 limits assumed): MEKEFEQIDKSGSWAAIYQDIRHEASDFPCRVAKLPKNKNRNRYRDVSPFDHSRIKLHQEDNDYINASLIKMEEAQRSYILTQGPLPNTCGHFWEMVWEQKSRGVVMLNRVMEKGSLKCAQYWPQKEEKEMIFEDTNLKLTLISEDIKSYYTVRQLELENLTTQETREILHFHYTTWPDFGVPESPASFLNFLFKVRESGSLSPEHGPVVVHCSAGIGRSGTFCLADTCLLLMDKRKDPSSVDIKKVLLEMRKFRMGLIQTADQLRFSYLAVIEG
Assay type: biochemical
Description: The enzymatic activities of the PTP1B catalytic domain were determined at 30 °C by monitoring the hydrolysis of pNPP. Dephosphorylation of pNPP generates product pNP, which was monitored at an absorbance of 405 nm. In a typical 100 μL assay mixture containing 50 mmol/L 3-[N-morpholino] propanesulfonic acid (MOPs), pH 6.5, 2 mmol/L pNPP, and 30 nmol/L recombinant PTP1B, activities were continuously monitored and the initial rate of the hydrolysis was determined using the early linear region of the enzymatic reaction kinetic curve.

| IC50 | Compound |
| --- | --- |
| 5.2 µM | CC(C)=CCCC(C)=CCCC(C)=CCCC1=CCC2OC1NC=C2C=O (stereo not drawn) [Compound 1] |
| > 50 µM | CC(C)=CCCC(C)=CCCC(C)=CCCC1=CCC(O)C2(C(N)=O)CC(=O)OC12 (stereo not drawn) [Compound 2] |
| 33 µM | CC(C)=CCCC(C)=CCCC(C)=CCCC1=CCC(O)C2(C(=O)O)CC(=O)NC12 (stereo not drawn) [Compound 3] |
| 14 µM | CC(C)=CCC/C(C)=C/CC/C(C)=C/CCc1ccc(O)c(CC(=O)O)c1 [Compound 4] |
| 8.7 µM | CC(C)=CCC/C(C)=C/CC/C(C)=C/CC\C(C=O)=C/C=C/C(C=O)=C/N [Compound 5] |

Each compound was assayed on HCT-116 cell line (assay: cytotoxicity against HCT-116 cancer cell line). Conditions: Homo sapiens.
Assay type: cell-based

| Compound | IC50 |
| --- | --- |
| CC(C)=CCCC(C)=CCCC(C)=CCCC1=CCC2OC1NC=C2C=O (stereo not drawn) [Compound 1] | 11.6 µM |
